From ChEMBL document CHEMBL1201861, “Genomics of Drug Sensitity in Cancer screening data, Wellcome Trust Sanger Institute”

Key:
Assay in all cases: cells
COLO-800 = assay type: functional, cell-based, Homo sapiens; details: Homo sapiens, COLO-800
Description: SANGER: Inhibition of human COLO-800 cell growth in a cell viability assay.

CTV-1 = assay type: functional, cell-based, Homo sapiens; details: Homo sapiens, CTV-1
Description: SANGER: Inhibition of human CTV-1 cell growth in a cell viability assay.

Calu-6 = assay type: functional, cell-based, Homo sapiens; details: Homo sapiens, Calu-6
Description: SANGER: Inhibition of human Calu-6 cell growth in a cell viability assay.

D-502MG = assay type: functional, cell-based, Homo sapiens; details: Homo sapiens, D-502MG
Description: SANGER: Inhibition of human D-502MG cell growth in a cell viability assay.

ES6 = assay type: functional, cell-based, Homo sapiens; details: Homo sapiens, ES6
Description: SANGER: Inhibition of human ES6 cell growth in a cell viability assay.

ES8 = assay type: functional, cell-based, Homo sapiens; details: Homo sapiens, ES8
Description: SANGER: Inhibition of human ES8 cell growth in a cell viability assay.

ETK-1 = assay type: functional, cell-based, Homo sapiens; details: Homo sapiens, ETK-1
Description: SANGER: Inhibition of human ETK-1 cell growth in a cell viability assay.

EW-1 = assay type: functional, cell-based, Homo sapiens; details: Homo sapiens, EW-1
Description: SANGER: Inhibition of human EW-1 cell growth in a cell viability assay.

EW-3 = assay type: functional, cell-based, Homo sapiens; details: Homo sapiens, EW-3
Description: SANGER: Inhibition of human EW-3 cell growth in a cell viability assay.

GCIY = assay type: functional, cell-based, Homo sapiens; details: Homo sapiens, GCIY
Description: SANGER: Inhibition of human GCIY cell growth in a cell viability assay.

GI-1 = assay type: functional, cell-based, Homo sapiens; details: Homo sapiens, GI-1
Description: SANGER: Inhibition of human GI-1 cell growth in a cell viability assay.

GOTO = assay type: functional, cell-based, Homo sapiens; details: Homo sapiens, GOTO
Description: SANGER: Inhibition of human GOTO cell growth in a cell viability assay.

GT3TKB = assay type: functional, cell-based, Homo sapiens; details: Homo sapiens, GT3TKB
Description: SANGER: Inhibition of human GT3TKB cell growth in a cell viability assay.

HCC2157 = assay type: functional, cell-based, Homo sapiens; details: Homo sapiens, HCC2157
Description: SANGER: Inhibition of human HCC2157 cell growth in a cell viability assay.

HCE-4 = assay type: functional, cell-based, Homo sapiens; details: Homo sapiens, HCE-4
Description: SANGER: Inhibition of human HCE-4 cell growth in a cell viability assay.

HCE-T = assay type: functional, cell-based, Homo sapiens; details: Homo sapiens, HCE-T
Description: SANGER: Inhibition of human HCE-T cell growth in a cell viability assay.

HEL = assay type: functional, cell-based, Homo sapiens; details: Homo sapiens, HEL
Description: SANGER: Inhibition of human HEL cell growth in a cell viability assay.

KLE = assay type: functional, cell-based, Homo sapiens; details: Homo sapiens, KLE
Description: SANGER: Inhibition of human KLE cell growth in a cell viability assay.

KP-N-YS = assay type: functional, cell-based, Homo sapiens; details: Homo sapiens, KP-N-YS
Description: SANGER: Inhibition of human KP-N-YS cell growth in a cell viability assay.

L-428 = assay type: functional, cell-based, Homo sapiens; details: Homo sapiens, L-428
Description: SANGER: Inhibition of human L-428 cell growth in a cell viability assay.

LB1047-RCC = assay type: functional, cell-based, Homo sapiens; details: Homo sapiens, LB1047-RCC
Description: SANGER: Inhibition of human LB1047-RCC cell growth in a cell viability assay.

LU-139 = assay type: functional, cell-based, Homo sapiens; details: Homo sapiens, LU-139
Description: SANGER: Inhibition of human LU-139 cell growth in a cell viability assay.

Lu-65 = assay type: functional, cell-based, Homo sapiens; details: Homo sapiens, Lu-65
Description: SANGER: Inhibition of human LU-65 cell growth in a cell viability assay.

ML-2 = assay type: functional, cell-based, Homo sapiens; details: Homo sapiens, ML-2
Description: SANGER: Inhibition of human ML-2 cell growth in a cell viability assay.

MZ1-PC = assay type: functional, cell-based, Homo sapiens; details: Homo sapiens, MZ1-PC
Description: SANGER: Inhibition of human MZ1-PC cell growth in a cell viability assay.

NB10 = assay type: functional, cell-based, Homo sapiens; details: Homo sapiens, NB10
Description: SANGER: Inhibition of human NB10 cell growth in a cell viability assay.

NB13 = assay type: functional, cell-based, Homo sapiens; details: Homo sapiens, NB13
Description: SANGER: Inhibition of human NB13 cell growth in a cell viability assay.

NB69 = assay type: functional, cell-based, Homo sapiens; details: Homo sapiens, NB69
Description: SANGER: Inhibition of human NB69 cell growth in a cell viability assay.

NCI-H1650 = assay type: functional, cell-based, Homo sapiens; details: Homo sapiens, NCI-H1650
Description: SANGER: Inhibition of human NCI-H1650 cell growth in a cell viability assay.

NCI-H1770 = assay type: functional, cell-based, Homo sapiens; details: Homo sapiens, NCI-H1770
Description: SANGER: Inhibition of human NCI-H1770 cell growth in a cell viability assay.

NCI-H209 = assay type: functional, cell-based, Homo sapiens; details: Homo sapiens, NCI-H209
Description: SANGER: Inhibition of human NCI-H209 cell growth in a cell viability assay.

NCI-H2126 = assay type: functional, cell-based, Homo sapiens; details: Homo sapiens, NCI-H2126
Description: SANGER: Inhibition of human NCI-H2126 cell growth in a cell viability assay.

NCI-H226 = assay type: functional, cell-based, Homo sapiens; details: Homo sapiens, NCI-H226
Description: SANGER: Inhibition of human NCI-H226 cell growth in a cell viability assay.

NCI-H446 = assay type: functional, cell-based, Homo sapiens; details: Homo sapiens, NCI-H446
Description: SANGER: Inhibition of human NCI-H446 cell growth in a cell viability assay.

NEC8 = assay type: functional, cell-based, Homo sapiens; details: Homo sapiens, NEC8
Description: SANGER: Inhibition of human NEC8 cell growth in a cell viability assay.

RCC10RGB = assay type: functional, cell-based, Homo sapiens; details: Homo sapiens, RCC10RGB
Description: SANGER: Inhibition of human RCC10RGB cell growth in a cell viability assay.

SCH = assay type: functional, cell-based, Homo sapiens; details: Homo sapiens, SCH
Description: SANGER: Inhibition of human SCH cell growth in a cell viability assay.

SF-126 = assay type: functional, cell-based, Homo sapiens; details: Homo sapiens, SF-126
Description: SANGER: Inhibition of human SF126 cell growth in a cell viability assay.

SHP77 = assay type: functional, cell-based, Homo sapiens, SHP-77; details: Homo sapiens, SHP77
Description: SANGER: Inhibition of human SHP-77 cell growth in a cell viability assay.

SK-LMS-1 = assay type: functional, cell-based, Homo sapiens; details: Homo sapiens, SK-LMS-1
Description: SANGER: Inhibition of human SK-LMS-1 cell growth in a cell viability assay.

SK-MEL-1 = assay type: functional, cell-based, Homo sapiens; details: Homo sapiens, SK-MEL-1
Description: SANGER: Inhibition of human SK-MEL-1 cell growth in a cell viability assay.

A4-Fuk = assay type: functional, cell-based, Homo sapiens; details: Homo sapiens, A4-Fuk
Description: SANGER: Inhibition of human A4-Fuk cell growth in a cell viability assay.

AM-38 = assay type: functional, cell-based, Homo sapiens; details: Homo sapiens, AM-38
Description: SANGER: Inhibition of human AM-38 cell growth in a cell viability assay.

ATN-1 = assay type: functional, cell-based, Homo sapiens; details: Homo sapiens, ATN-1
Description: SANGER: Inhibition of human ATN-1 cell growth in a cell viability assay.

BE-13 = assay type: functional, cell-based, Homo sapiens; details: Homo sapiens, BE-13
Description: SANGER: Inhibition of human BE-13 cell growth in a cell viability assay.

BV-173 = assay type: functional, cell-based, Homo sapiens; details: Homo sapiens, BV-173
Description: SANGER: Inhibition of human BV-173 cell growth in a cell viability assay.

Becker = assay type: functional, cell-based, Homo sapiens; details: Homo sapiens, Becker
Description: SANGER: Inhibition of human Becker cell growth in a cell viability assay.

TE-12 = assay type: functional, cell-based, Homo sapiens; details: Homo sapiens, TE-12
Description: SANGER: Inhibition of human TE-12 cell growth in a cell viability assay.

## Cc1ccc(-c2c(C(=O)CCl)n(CCCO)c3ncnc(N)c23)cc1
COLO-800
  IC50: > 4000 nM
CTV-1
  IC50: > 4000 nM
Calu-6
  IC50: > 4000 nM
D-502MG
  IC50: > 4000 nM
ES6
  IC50: > 4000 nM
ES8
  IC50: > 4000 nM
ETK-1
  IC50: > 4000 nM
EW-1
  IC50: > 4000 nM
EW-3
  IC50: > 4000 nM
GCIY
  IC50: > 4000 nM
GI-1
  IC50: 2700 nM
GOTO
  IC50: > 4000 nM
GT3TKB
  IC50: > 4000 nM
HCC2157
  IC50: > 4000 nM
HCE-4
  IC50: > 4000 nM
HCE-T
  IC50: > 4000 nM
HEL
  IC50: > 4000 nM
KLE
  IC50: > 4000 nM
KP-N-YS
  IC50: > 4000 nM
L-428
  IC50: > 4000 nM
LB1047-RCC
  IC50: > 4000 nM
LU-139
  IC50: > 4000 nM
Lu-65
  IC50: > 4000 nM
ML-2
  IC50: > 4000 nM
MZ1-PC
  IC50: 2920 nM
NB10
  IC50: > 4000 nM
NB13
  IC50: 978 nM
NB69
  IC50: > 4000 nM
NCI-H1650
  IC50: > 4000 nM
NCI-H1770
  IC50: > 4000 nM
NCI-H209
  IC50: > 4000 nM
NCI-H2126
  IC50: > 4000 nM
NCI-H226
  IC50: > 4000 nM
NCI-H446
  IC50: > 4000 nM
NEC8
  IC50: > 4000 nM
RCC10RGB
  IC50: > 4000 nM
SCH
  IC50: > 4000 nM
SF-126
  IC50: > 4000 nM
SHP77
  IC50: > 4000 nM
SK-LMS-1
  IC50: 1400 nM
SK-MEL-1
  IC50: > 4000 nM
A4-Fuk
  IC50: > 4000 nM
AM-38
  IC50: > 4000 nM
ATN-1
  IC50: > 4000 nM
BE-13
  IC50: > 4000 nM
BV-173
  IC50: > 4000 nM
Becker
  IC50: > 4000 nM
TE-12
  IC50: > 4000 nM

## OCCCNc1cc(-c2ccnc(Nc3cccc(Cl)c3)n2)ccn1
COLO-800
  IC50: > 256 nM
CTV-1
  IC50: 66 nM
Calu-6
  IC50: > 256 nM
D-502MG
  IC50: > 256 nM
ES6
  IC50: 8.78 nM
ES8
  IC50: > 256 nM
ETK-1
  IC50: 13.8 nM
EW-1
  IC50: 45.8 nM
EW-3
  IC50: > 256 nM
GCIY
  IC50: > 256 nM
GI-1
  IC50: 78.1 nM
GOTO
  IC50: 74.9 nM
GT3TKB
  IC50: 59 nM
HCC2157
  IC50: 206 nM
HCE-4
  IC50: > 256 nM
HCE-T
  IC50: 47.3 nM
HEL
  IC50: 114 nM
KLE
  IC50: 55.6 nM
KP-N-YS
  IC50: > 256 nM
L-428
  IC50: 112 nM
LB1047-RCC
  IC50: 28.4 nM
LU-139
  IC50: 131 nM
Lu-65
  IC50: > 256 nM
ML-2
  IC50: > 256 nM
MZ1-PC
  IC50: 42.7 nM
NB10
  IC50: > 256 nM
NB13
  IC50: 126 nM
NB69
  IC50: > 256 nM
NCI-H1650
  IC50: > 256 nM
NCI-H1770
  IC50: > 256 nM
NCI-H209
  IC50: 135 nM
NCI-H2126
  IC50: > 256 nM
NCI-H226
  IC50: 213 nM
NCI-H446
  IC50: > 256 nM
NEC8
  IC50: > 256 nM
RCC10RGB
  IC50: 111 nM
SCH
  IC50: > 256 nM
SF-126
  IC50: 134 nM
SHP77
  IC50: 155 nM
SK-LMS-1
  IC50: 135 nM
SK-MEL-1
  IC50: > 256 nM
A4-Fuk
  IC50: 28 nM
AM-38
  IC50: > 256 nM
ATN-1
  IC50: 54.2 nM
BE-13
  IC50: 76.9 nM
BV-173
  IC50: 144 nM
Becker
  IC50: 47.9 nM
TE-12
  IC50: 48.5 nM
